Source: publication PMC7356940, “Comparison between Colistin Sulfate Dry Powder and Solution for Pulmonary Delivery” (Pharmaceutics, 2020)
Where a name gives a salt, the structure may show the parent alone. Where a SMILES comes first, the peptide text is derived from it. Bridges are numbered along the chain shown (N, C = ends). [ ]: non-standard residue; d: D form. The star is where a group is joined. X1 = CC[C@H](C)CCCCC(=O)*; Dab = NCC[C@H](N)C(=O)O

Experiments:
[1] = cited from earlier work
Source text: Due to its low permeability across the lung–blood barrier, colistin methanesulfonate (CMS) is one of only four antibiotics currently used to treat Pseudomonas aeruginosa lung infections by inhalation. CMS is an anionic prodrug of colistin (COLI), which is a cationic lipopeptide mix composed mainly of two molecules: colistin A and B. Inhaled COLI therapy is almost always conducted by means of nebulization of CMS instead of the cationic COLI since the use of the latter can lead to more side effects, such as bronchoconstriction, throat irritation, and cough.

P. aeruginosa = settings: cited from earlier work
Source text: However, CMS is not an optimal p ...

[2] = previous studies; cited from earlier work
Experimental: The day before the experiment polyethylene catheters were implanted into the femoral artery of anesthetized rats. […] Accordingly, arterial blood samples were collected at 0, 0.25, 0.5, 1, 2, 3, and 4 h after pulmonary administration. Plasma was obtained and frozen at −80 °C.

[3] = Plasma and ELF pharmacokinetics after intratracheal administration, simultaneous PK modeling; settings: male, Sprague–Dawley, rat, in vivo, rats, 0.35 mg·kg^−1, whatever the formulation used
Experimental: In vivo experiments were undertaken in compliance with EC Directive 2010/63/EU after agreement by a local ethics committee. Male Sprague–Dawley rats (n = 68) from Janvier Laboratories (Le Genest-St.-Isle, France) with weights of 324 ± 24 g (mean ± SD) were used. Animals were acclimatized for 5 days prior to experiments. They always had free access to food and water.
The target COLI dose delivered was 0.35 mg kg^−1 (base form). This dose was previously used in our lab to investigate the pharmacokinetic properties of colistin following intratracheal administration of colistin sulfate solution in rats. […] The insufflator was weighed with a 0.01 mg accuracy scale (Sartorius KB BA100) before and after insufflation to determine the exact amount of powder delivered, and the dose of colistin administered was calculated based on the animal’s weight. […]
Bronchoalveolar lavage fluid (BALF) collection was performed according to methods previously described. […] COLI and urea concentrations were determined in both plasma and BALF. […] Therefore, the COLI concentration in ELF(CELF) was calculated using Equation 1 from measured COLI concentrations in BALF (CBAL) by using urea as a marker of dilution. CELF = CBAL (Ureaplasma/UreaBAL)(1) where UreaBAL and Ureaplasma correspond to the concentrations of urea determined in BALF and plasma. […]

[4] = test system: Calu-3 cell epithelium model; settings: cited from earlier work
Source text: COLI Papp changed as a function of COLI concentration in the Calu-3 cell monolayer apical side (Figure 5). […] This value was consistent with a previous determination (0.42 × 10^−7 cm·s^−1).

[5] = fixed in the PK model; cited from earlier work
Source text: Plasma and ELF COLI concentrations versus time were simultaneously analyzed by a nonlinear mixed-effects method with S-ADAPT software (v 1.52, Biomedical Simulations Resource (BMSR), Los Angeles, USA) with S-ADAPT TRAN translator [19]. The structural model (Appendix C, Figure A3) used for data analysis has been developed in a previous study to fit plasma and ELF COLI concentrations after COLI intravenous administrations and solution nebulization to rats. Briefly, the systemic pharmacokinetics of COLI were described by a two-compartment model, characterized by a central compartment (Vc ...

[6] = test system: Calu-3 cell epithelium model; test: Apical-to-basolateral COLI transport across Calu-3 monolayers; type: in vitro ADME
Experimental: (§1) Calu-3 cells were purchased from the American Type Culture Collection (Manassas, VA, USA). The cells were cultured in DMEM/Ham’s F12 (1/1) (PanBiotech) supplemented with L-glutamine (2 mM), fetal calf serum (10% v/v), and incubated at 37 °C under 90–95% of RH and 5% v/v of CO2 in the air.
(§2) Samples were taken after 60 min at 37 °C.
(§3) The determination of COLI plasma concentrations was performed based on a validated LC-MS/MS method previously described. The chromatography was performed on an Alliance 2695 system (Waters, France) with a Jupiter 300-Å column (5.0 µm, 50 mm, 2.0-mm i.d.; Waters, St.-Quentin en Yvelines, France) and a mobile phase (flow rate 0.2 mL/min) consisting of 0.1% (v/v) formic acid in acetonitrile–0.1% formic acid in water (25:75 v/v). The mass spectrometer Micromass Quattro microAPI (Waters, France) was used in the positive/ion mode. The calibration standard curve was prepared with seven samples in rat plasma with COLI base concentrations ranging between 0.0097 and 10 µg·mL^−1. For analysis of COLI in BALF and in the medium used for the COLI transport experiments, 150 µL of sample was mixed with 100 µL of plasma and analyzed as for plasma.

[7] = as above; type: in vitro ADME; settings: human; Calu-3, air-interface 15 days, apical-to-basolateral, COLI 100 mg/L (COLI or dissolved INU-COLI particles), HBSS/10 mM HEPES pH 7.4, 6 h, LC-MS/MS; read-out: COLI apparent permeability (Papp)
Experimental: as §1, §2, §3

| Compound | fraction of the CMS dose converted into COLI in the lung ([1]; human, in vivo) | activity against P. aeruginosa (P. aeruginosa) | plasma COLI half-life [2] | Cmax [3] | Tmax [3] | COLI Papp, previous determination [4] | COLI unbound plasma fraction [5] | COLI concentrations measured in the ELF ([1]; patients, six hours after inhalation of nebulized CMS solutions) | fold increase in COLI Papp ([6]; Calu-3, COLI concentration changed from 100 to 4000 mg/L) | fold increase in COLI Papp ([6]; Calu-3 A-B, 6 h, COLI concentration increased to 1000 mg/L (from 100 mg/L)) | additional fold increase in COLI Papp ([6]; Calu-3 A-B, 6 h, further increase in COLI concentration to 4000 mg/L (from 1000 mg/L)) | Papp A→B at 6 h, 100 mg/L [7] |
| --- | --- | --- | --- | --- | --- | --- | --- | --- | --- | --- | --- | --- |
| colistin methanesulfonate [CMS] | 1.4 % (w/w) | inactive | – | – | – | – | – | – | – | – | – | – |
| CC[C@H](C)CCCCC(=O)N[C@@H](CCN)C(=O)N[C@H](C(=O)N[C@@H](CCN)C(=O)N[C@H]1CCNC(=O)[C@H]([C@@H](C)O)NC(=O)[C@H](CCN)NC(=O)[C@H](CCN)NC(=O)[C@H](CC(C)C)NC(=O)[C@@H](CC(C)C)NC(=O)[C@H](CCN)NC1=O)[C@@H](C)O [COLI, Colistin sulfate salt] (X1-[Dab]T[Dab][Dab][Dab][dL]L[Dab][Dab]T; lactam 4-C) | – | – | 30 to 40 min | 330 ng/mL | 30 min | 0.42 10^−7 cm·s^−1 | 45% | greater than 1000 mg/L | 10 fold | 4 fold | 2.5 fold | 0.043 ± 0.011 ×10⁻⁶ cm/s |
